System: post-synaptic 5-HT1A receptor
Assay: Inhibition of forepaw treading induced by 8-OH-DPAT in rats
Format: in vivo
Conditions: i.p., forepaw treading induced by 1 mg/kg s.c. 8-OH-DPAT
Protocol: Inhibition of forepaw treading induced by 8-OH-DPAT in rats:
Male Sprague-Dawley rats (150-175 g) obtained from Charles River (Italy), were housed in a climate-controlled room and maintained on a 12 h light/dark cycle with free access to food and water. On the day of experiment, rats were placed singly in clear plastic boxes. Reserpinised rats were treated with reserpine, 1 mg/kg s.c., 18-24 h before the test.
The appearance of the forepaw treading symptom induced by post-synaptic stimulation of the 5HT1A receptors was noted, and its intensity was scored using a ranked intensity scale in which: 0 = absent, 1 = equivocal, 2 = present and 3 = intense. Behavioural scores for each treated rat were accumulated over the time course (5 observation periods) and expressed as mean values of 8-10 rats.

Compound: COc1ccccc1N1CCN(CCCCN2C(=O)c3ccccc3C2=O)CC1 [NAN-190, 1-(2-methoxyphenyl)-4-[4-(2-phthalimido)-butyl]-piperazine]
- NORMAL RATS ID50 (normal rats): 700 (500-1000) µg/Kg
- RESERPINIZED RATS ID50 (reserpinized rats): 2000 (1600-2400) µg/Kg

— patent publication EP0906100B1, “USE OF 5-HT 1A? RECEPTOR ANTAGONISTS FOR THE TREATMENT OF URINARY INCONTINENCE” (RECORDATI S.A., priority 1996, dated 1997)
